Measured values as given in PubChem BioAssay AID1902 (Broad Institute, 2009).
Active and inactive are the calls of the source.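 Rule for the calls: active = EC50 no more than a set limit of log units above the highest dose; inactive = the rest.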

Target: S. pyogenes SKKanGAS, kanamycin survival, BacTiterGlo, 6 h
Assay: S. pyogenes SKKanGAS kanamycin growth inhibitors – SKKanGAS strain, luminescence, dose confirmation, streptokinase promoter inhibitor project, dose response (AID 1902);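 note: lower survival reflects blocked streptokinase promoter driving kanamycin resistance gene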

Compound	EC50
CCC(=O)NC(c1ccc(C)cc1)c1cc([N+](=O)[O-])c2cccnc2c1O (centres undefined)	1.31 µM
Cn1c(N)c(C(=O)COC(=O)CCc2c[nH]c3ccccc23)c(=O)n(C)c1=O	9.68 µM
O=C(N/N=C/c1cc([N+](=O)[O-])ccc1O)C(O)(c1ccccc1)c1ccccc1	6.17 µM
O=C(O)c1ccc2c3c(ncnc13)-c1ccccc1C2=O	5.26 µM
CCOc1ccccc1NC(=O)c1nc(S(=O)(=O)Cc2cccc(C)c2)ncc1Cl	11.1 µM
CCS(=O)(=O)N1Cc2ccccc2CC1C(=O)Nc1nnc(SCc2ccc(C#N)cc2)s1 (centres undefined)	8.26 µM
Cc1sc2ncnc(N3CCC(C(=O)NCC(=O)Nc4ccc(F)c(F)c4)CC3)c2c1C	5.07 µM
COc1ccc(O)c(C(=O)c2cc(SCC(=O)O)c3nc4sc5c(c4c(=O)n3c2)CCCC5)c1	4.1 µM
Cc1ccc(-c2csc3ncnc(NS(=O)(=O)c4ccc(Cl)cc4)c23)cc1	6.82 µM
CCCCn1c(SCC(=O)c2ccccc2)nc2c1c(=O)[nH]c(=O)n2C	3.43 µM
N=c1c2c(-c3ccccc3)c(-c3ccccc3)oc2ncn1Cc1ccco1	3.27 µM
COc1ccc(/C=N/n2c(C)nc3c([nH]c4ccccc43)c2=O)cc1CN1CCCC(C)(C)C1	7.93 µM
C/C(=N\NC(=O)c1cc(Br)ccc1O)c1cccc(NC(=O)c2ccccc2F)c1	2.87 µM
CCCCCCn1c(=O)c(C(=O)Nc2c(C)n(C)n(-c3ccccc3)c2=O)c(O)c2ccccc21	2.59 µM
O=C(c1cccs1)N1CCC(c2nc3c(nnn3Cc3ccccc3Cl)c(=O)[nH]2)CC1	7.09 µM
COc1ccccc1C(=O)NNC(=S)NC(=O)c1ccco1	0.383 µM
CC(C)c1ccc(N2C(=O)/C(=C/N(C)C)SC2=S)cc1	4.7 µM
CCN1CCN(c2cc3c(cc2F)c(=O)c(C(=O)O)cn3C2CC2)CC1	1.29 µM
Cc1cccc(Nc2nnc(-c3ccc(N4CCOCC4)c([N+](=O)[O-])c3)c3ccccc23)c1	4.52 µM
Cc1ccc(NC(=S)NC(=O)c2ccc(F)cc2)cc1S(=O)(=O)Nc1cccc(Cl)c1	2.19 µM
Cc1cccc(N=C2NN=C(c3c(C)[nH]c4ccccc34)CS2)c1	3.02 µM
O=C(N/N=C\C=C\c1ccc([N+](=O)[O-])o1)c1cccs1	1.97 µM
CC(C)=CCC12Oc3cc(O)ccc3C1(O)Oc1cc(O)c([C@H]3C=C(C)CC(c4ccc(O)cc4O)[C@H]3C(=O)c3ccc(O)cc3O)c(O)c1C2=O (some centres undefined)	1.21 µM
Cc1cc(C)n(-c2nc(Nc3ccccc3C)nc(-n3nc(C)cc3C)n2)n1	5.32 µM
O=C(Nc1nc(-c2ccccn2)cs1)C1CC1	1.33 µM
Oc1c(Br)cc(Br)cc1/C=N/c1nc2c(s1)CCCC2	5.86 µM

Compound	EC50
Cc1ccc(C)c(-c2nnc(NC(=O)CCS(=O)(=O)c3ccccc3)o2)c1	8.64 µM
COc1ccc(/C=C/C(=O)NC(=S)NNC(=O)c2cnccn2)cc1	5.92 µM
CC1CCN(C(=O)N2c3ccccc3Sc3ccccc32)CC1	9.99 µM
Cc1ccc(C)c(/C=C/C(=O)c2ccccc(=O)c2O)c1	1.9 µM
CC(=O)O[C@H]1C[C@@]2(C)[C@@H](C[C@@H](O)[C@H]3[C@@]4(C)CC[C@@H](O)[C@@H](C)C4CC[C@@]32C)/C1=C(\CCC=C(C)C)C(=O)O (some centres undefined)	1.58 µM
COc1ccc2c(c1)[nH]c1c(=O)n(CCc3cnc[nH]3)cnc12	> 15 µM (inactive)
O=S(=O)(Cc1nnnn1-c1ccccc1)c1ccc(F)cc1	> 15 µM (inactive)
CC1CCN(c2ccccc2NC(=O)c2ccc(Br)o2)CC1	5.29 µM
O=C(/C=C/c1cccc(Cl)c1)c1ccc([N+](=O)[O-])o1	2.23 µM
COc1ccc(NC(=O)c2ccc3c(c2)NC(=O)CS3)cc1S(=O)(=O)Nc1ccc(Br)cc1	3.38 µM
NCCCn1c(C(=O)c2cc(Cl)c(N)c(Cl)c2)c2ccc([N+](=O)[O-])cc2[n+]1[O-]	4.25 µM
Cc1ccccc1Oc1nc(-c2ccccn2)nc2ccccc12	4.19 µM
O=[N+]([O-])c1ccc(N2N=C(c3ccccc3)CC2c2ccccc2O)cc1 (centres undefined)	2.25 µM
CC(C)(C)c1nnc(N/N=C/c2cc(Br)ccc2O)n(N)c1=O	2.12 µM
COc1cccc(C(=O)Nc2nnc(-c3cccs3)o2)c1	3.34 µM
O=C(CN(C(=O)Cn1nnc(-c2ccccc2F)n1)c1cccc2c1CCCC2)NCc1ccccc1	5.32 µM
Cc1ccc(Cl)cc1N1CCN(C(=O)c2cn(C)c(=O)c3c2c2ccccc2n3C)CC1	4.92 µM
CC(C)c1ccc2nc3sc(C(=O)N4CCc5ccccc5C4)c(N)c3cc2c1	14.5 µM
Nc1nc(NCc2ccco2)nc(N2CCCCCC2)c1[N+](=O)[O-]	4.09 µM
Cc1cc(O)c(NC(=S)NC(=O)c2ccc(-c3ccc(Cl)cc3)o2)cc1C	0.76 µM
Cc1conc1NC(c1cccs1)c1ccc2cccnc2c1O (centres undefined)	1.23 µM
O=C(/C=C/c1ccccc1Cl)c1ccccc(=O)c1O	0.824 µM
COc1ccc(NC(=S)Nc2nc(CC(=O)Nc3ccccc3OC)cs2)cc1	8.89 µM
O=C(N/N=C/c1ccccc1O)NC12CC3CC(CC(C3)C1)C2	8.68 µM
c1ccc(-c2cc(-c3ccncc3)nc3ccc4ccccc4c23)cc1	2.21 µM
COc1cnc(-c2ccccn2)nc1Oc1ccccc1	2.03 µM

Compound	EC50
O=c1c2c(nc3c(-c4ccc(Cl)cc4)c[nH]n13)CCC2	3.38 µM
COc1ccc(/C=C2\SC(=N)N(c3nccs3)C2=O)cc1OC	0.838 µM
COc1cc(NC(=O)CSc2ncnc3sc4c(c23)CCCC4)c(C(=O)O)cc1OC	12 µM
CCCCn1c(/C=N/Nc2nc3ccccc3[nH]2)nc2ccccc21	1.17 µM
CCc1nnc(NC(=O)c2cccc(C(=O)Nc3nnc(CC)s3)n2)s1	0.961 µM
C[C@@H](C[C@@H](O)[C@H](O)C(C)(C)O)[C@@H]1CC[C@]2(C)C3=CC[C@H]4C(C)(C)C(=O)CC[C@]4(C)[C@H]3CC[C@@]12C	2.46 µM
CN(C)[C@@H]1C(=O)C(C(N)=O)=C(O)[C@@]2(O)C(=O)C3=C(O)c4c(O)cccc4[C@@](C)(O)C3[C@H](O)C12 (some centres undefined)	0.095 µM
Clc1cccc(Nc2ncnc3c2cnn3-c2ccccc2)c1	4.98 µM
COc1cc(/C=C/c2ccc3cccc(O)c3n2)c(Br)cc1O	0.35 µM
CCCCCCn1c(=O)c(C(=O)Nc2cnccn2)c(O)c2ccccc21	2.98 µM
COc1ccc(CC2=CC(=O)c3ccccc3C2=O)cc1	7.96 µM
CCn1c(SCC(=O)N2CC(C)OC(C)C2)nc2c([nH]c3ccccc32)c1=O (centres undefined)	> 15 µM (inactive)
COc1ccc2ncc(S(=O)(=O)c3ccccc3)c(N3CCN(c4ccccc4)CC3)c2c1	3.19 µM
O=[N+]([O-])c1ccc(/C=N/Nc2nc(N3CCCCCC3)nc(N3CCCCCC3)n2)o1	0.618 µM
CCOc1cc(N2CCOCC2)c(OCC)cc1NC(=O)C1=NN(c2cccc(C)c2)C(=O)CC1	13.1 µM
COC(=O)c1ccc(Cl)c(NC(=O)CSc2nnc(-c3ccncc3)o2)c1	> 15 µM (inactive)
Cc1ccc(O)c(C2=NNC(c3ccc(Cl)cc3)C2)c1 (centres undefined)	7.44 µM
FC(F)(F)c1cc(CCN2C(=S)NC[C@@H]2CC2CCCCC2)cc(C(F)(F)F)c1	3.7 µM
C/C(=N\NC(=O)COc1ccccc1-c1ccccc1)c1ccccn1	0.667 µM
Cc1cccc(OCCCCc2c(C)n[nH]c2C)c1C	4.74 µM
C/C(=N\Nc1ccc(C(=O)O)cc1)c1ccc2c(c1)Nc1ccccc1S2	2.45 µM
Cc1ccc(Oc2nc(-c3ccccn3)nc3ccccc23)cc1	< 0.06 µM
COc1ccc(-c2cc(-c3ccc(Cl)cc3)n[nH]2)c(O)c1	8.75 µM
COc1cccc(/C=N/Nc2cc(C)nc(-c3ccccc3O)n2)c1O	1.96 µM
O=C(Nc1nnc(C2CC2)o1)c1ccc(S(=O)(=O)N2CCCc3ccccc32)cc1	1.34 µM
CC(Oc1ccc(F)cc1)C(=O)Nc1ccccc1N1CCCCC1 (centres undefined)	5.01 µM

Compound	EC50
COc1ccc(CC(=O)N/N=C/c2cc([N+](=O)[O-])cc(Br)c2O)cc1	4.91 µM
Cc1sc2cc3c(c(C(=O)c4ccccc4)[n+]2c1C)-c1cccc2cccc-3c12	6.66 µM
COc1ccc(-c2oc3ncn(Cc4ccco4)c(=N)c3c2-c2ccc(OC)cc2)cc1	4.76 µM
Cc1ccc(C(=O)NC2CCCC2)s1	> 15 µM (inactive)
O=c1[nH]c(-c2ccccn2)nc2sc(-c3ccccc3)cc12	0.261 µM
CC12CCC(C(=O)Nc3cccc(Cl)c3Cl)([C@H](Br)C1=O)C2(C)C (some centres undefined)	> 15 µM (inactive)
O=C(NC(c1ccccc1)c1cc(Cl)c2cccnc2c1O)c1cccnc1 (centres undefined)	1.38 µM
CCc1nc(SCC(=O)Nc2ccccc2OC)c2c(C)c(C)sc2n1	6.58 µM
Cc1cc(N/N=C\c2ccc(Br)cc2)nc(-n2nc(C)cc2C)n1	0.414 µM
CCOC(=O)c1c(-c2ccc(C)o2)csc1NC(=O)COC(=O)c1ccc(NC(N)=O)cc1	2.53 µM
CC1Oc2cc3c(-c4c(O)cc(O)c5c(O)c6c(cc45)OC(C)C(C)C6=O)c(O)cc(O)c3c(O)c2C(=O)C1C (centres undefined)	0.319 µM
CCCc1ccc(Oc2cn[nH]c2-c2ccc(O)c(C)c2O)cc1	1.8 µM
COc1ccc(C(=O)Nc2cccc(-c3ccc(N4CCOCC4)nn3)c2)cc1	> 15 µM (inactive)
CCOC(=O)C1=C(C)N=c2s/c(=C\c3ccc(O)c([N+](=O)[O-])c3)c(=O)n2C1c1ccccc1OC (centres undefined)	6.9 µM
CC1=C(C(=O)O)N2C(=O)C(NC(=O)Cc3ccccc3)C2SC1 (centres undefined)	1.03 µM
COC(=O)c1ccc(N2CCC(c3cc(-c4ccc(OC)cc4)n[nH]3)CC2)c([N+](=O)[O-])c1	2.15 µM
CCCN(Cc1ccco1)S(=O)(=O)c1ccc(OC)c(OC)c1	> 15 µM (inactive)
Oc1c(N=NC(=S)Nc2ccccc2F)c2ccccc2n1Cc1ccc(F)cc1	0.892 µM
COc1ccc(NC(=S)NNc2ccc([N+](=O)[O-])cc2S(=O)(=O)Nc2ccc(C)cc2C)cc1	8.34 µM
O=C(CSc1nc2ccccc2c(=O)n1NC(=O)c1ccccc1)c1ccc(Cl)cc1	11.3 µM
CC1CC(C)CN(c2ncc3c(n2)CC(c2ccccc2Cl)CC3=O)C1 (centres undefined)	4.33 µM
COc1cc(C(=O)Nc2ccc(-c3nc4cc(C)ccc4o3)c(O)c2)cc(OC)c1OC	3.9 µM
CC(C)(C)OC(=O)NCCCC[C@H](NC(=O)c1[nH]cnc1C(=O)Nc1ccc(Cl)cc1)C(=O)OC(C)(C)C	2.19 µM
CC(C)(C)N/N=C1\CC(c2ccccc2)Oc2ccccc21 (centres undefined)	3.03 µM
CCCN(CCC)S(=O)(=O)c1ccc(C(=O)Nc2nnc(-c3cc(OC)cc(OC)c3)o2)cc1	0.192 µM
O=c1c2cc(Br)ccc2nc(-c2ccc(Cl)cc2)n1O	1.07 µM
